From patent US20070078092A1, “Cell permeable conjugates of peptides for inhibition of protein kinases” (priority 2003, published 2007)
pIC50: −log10 of the molar value. Counter-ions that a name gives are not always drawn. Like-named read-outs stand apart in the source and are kept apart here.

Key:
[1] = system: prostate cancer cell lines; assay: Growth inhibition assay, combination with chemotherapeutic agents
Procedure: The chemotherapeutic agents used are: Mitoxantrone hydrochloride (Novantrone, Wyeth Lederle S.p.A. Catania, Italy) supplied as a sterile aqueous solution of 3.8 mM. Doxorubicin, Etoposide and Vinblastine sulfate salt (Sigma) were dissolved in 100% DMSO to prepare stock solutions at concentration of 10 mM. Docetaxel (Taxpter, Aventis) stock solution of 11.6 mM in polysorbate 80. These agents were diluted in medium just before use for in vitro studies.
Cells were incubated for five days in the present of the drugs followed by fixation and staining of cells with methylene blue.

PKB = target: T1, PKB (Homo sapiens, UniProt P31749); assay: PKB in vitro kinase activity assay; type: biochemical
T1 construct: His; HA; made in house
T1 sequence (P31749 whole entry, species assumed): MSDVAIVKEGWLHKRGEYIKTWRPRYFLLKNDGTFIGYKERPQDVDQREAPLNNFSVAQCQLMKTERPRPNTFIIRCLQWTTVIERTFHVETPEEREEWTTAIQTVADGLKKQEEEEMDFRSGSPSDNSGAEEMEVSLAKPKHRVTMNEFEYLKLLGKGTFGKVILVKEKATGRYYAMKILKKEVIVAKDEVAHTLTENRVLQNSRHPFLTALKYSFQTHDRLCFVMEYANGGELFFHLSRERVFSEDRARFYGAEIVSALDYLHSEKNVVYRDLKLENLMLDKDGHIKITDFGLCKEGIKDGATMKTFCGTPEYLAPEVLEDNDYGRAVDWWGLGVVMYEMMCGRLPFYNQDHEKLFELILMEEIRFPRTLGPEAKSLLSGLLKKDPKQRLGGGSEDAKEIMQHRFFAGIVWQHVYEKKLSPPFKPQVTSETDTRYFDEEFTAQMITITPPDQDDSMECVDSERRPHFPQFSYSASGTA

LNCaP cells = assay: Growth inhibition assay in LNCaP cells; type: cell-based, human; conditions: Table 3, assay B2
Description: (§1) Several cancer cell lines were used to determine the activity of PKB inhibitor compounds in intact cells. The human prostate carcinoma cell lines, PC-3 and LNCaP. The human acute T cells leukemia cell line, Jurkat. Human breast carcinoma cell lines: MCF-7 and MDA468 and renal adenocarcinoma cell 786-O. LNCaP,MDA468, 786-O and Jurkat cell lines express high basal level of activated PKB. PC-3 expresses moderate level of activated PKB. MCF-7 expresses low but inducible level of activated PKB. Control cells are PBLs, normal peripheral blood lymphocytes which obtained from normal donors (blood bank) and MCF10F which is a non tumorogenic breast cell line. […]
(§2) Cells were fixed by 0.5% glutardialdehyde followed by staining with 1% methylene blue in borate buffer (Sigma) for one hour. […] Quantitation of color intensity was performed by measurement of the optical density at 600 nm by ELISA reader. […]
(§3) At the appropriate time in culture 1uci of 3H-thymidine (stock of 5 Ci/mmole, Amersham) was added to each well containing 100 μl of medium for 5 hours. […] The radioactivity was counted using microplate counter, Packard TopCount.
(§4) Fifty percent inhibitory concentration (IC50) values were calculated using nonlinear regression in one site competition model with GraphPad Prism version 3.03 Windows (GraphPad Software, San Diego, USA)

PC3 cells = assay: Growth inhibition assay in PC3 cells; type: cell-based, human; conditions: 50 μM
Description: as §1, §2, §3, §4

[2] = system: prostate cancer cell lines; assay: Cell death and apoptosis in prostate cancer cell lines; type: cell-based, human
Description: (§5) Several cancer cell lines were used to determine the activity of PKB inhibitor compounds in intact cells. The human prostate carcinoma cell lines, PC-3 and LNCaP. The human acute T cells leukemia cell line, Jurkat. Human breast carcinoma cell lines: MCF-7 and MDA468 and renal adenocarcinoma cell 786-O. LNCaP,MDA468, 786-O and Jurkat cell lines express high basal level of activated PKB. PC-3 expresses moderate level of activated PKB. MCF-7 expresses low but inducible level of activated PKB. Control cells are PBLs, normal peripheral blood lymphocytes which obtained from normal donors (blood bank) and MCF10F which is a non tumorogenic breast cell line. The control cells are used to compare the effect of the protein kinase inhibitors on the tested cancer cells and the normal cells.
Peptide conjugates, which are active in enzyme inhibition assays were tested in cells for induction of apoptosis of cancer cell lines. Apoptosis was assayed at least by two methods in each cell line. Cells were seeded at the appropriate plates for each method, treated with or without the inhibitory compounds for different time points and analyzed by one of the below methods.
Table 9 represents the cell death induced by the protein kinase inhibitors in prostate cancer cell lines vs. normal cells. […]

[3] = system: Prostate cancer PC3 and LNCaP, T-cell leukemia Jurkat, and breast cancer MCF-7; assay: Cellular activity in the relevant cancer cell lines; type: cell-based, human
Description: as §5
Selected peptide conjugates, which were found active in the enzyme-inhibition assays were screened for their ability to inhibit growth of tumor cell lines. Screening for inhibitory compounds was done, initially, at concentration of 50 μM. Active compounds from the first screening were further tested at different concentrations (50, 25, 12.5, 6.25, 3.125 and 1.56 μM) in order to determine their IC50. Growth inhibition was tested using two methods: A. staining of viable cells with methylene blue, B. incorporation of ^3H-thymidine. For both methods cells were grown in 96-well plates: LNCaP, 5000 cell per well for 72 hours, PC3, 5000 cells per well for 48 hours Jurkat, MDA468, and 786-O, 2500, 5000 and 1000 cells per well respectively for 24 hours, before tested compounds were added. The assays were done in triplicates for one to six days.
In addition, some of the new conjugates were also 10-20 times selective for PKB over PKA in contrast to previously described chimeric compounds. • 1. […] From the peptide transporter conjugates, 96 compounds were tested all were very active in the in-vitro kinase assay and very selective 10-50 fold, however only few were active in cells. The selected 6 active conjugates show 8-20 μM activity in cells.

PC3 tumor xenograft [4] = assay: Efficacy study in mice bearing PC3 tumor, IT injection; type: in vivo; conditions: high dose (3.3 mg/kg), every other day, second week, FIG. 8
Procedure: C2. Efficacy Study in Mice Bearing PC3 Tumor
a. PC3 cells ([…]) were injected subcutaneously in matrigel, into hip area of Nude male mice (Harlan Co., Israel). Tumor size was determined by caliper using the formula: Length ×(width^2)×0.4. The tumors were allowed to grow to volume of about 50 mm 3 before the treatment was started. The appropriate doses of compounds were injected subcutaneously into the region surrounding the tumors (IT injection). The treatment was given 3 times a week; every other day for two weeks, and the tumor size was measured once every two days.
The high safety of PTR 6164 allows a very large therapeutic window. The conjugates were further tested in vivo in efficacy studies as described in C2 above: • a. The peptides were injected every other day, at the tumor area. After 3 injections, an indicative tendency of reduction in tumor size was observed.

[5] = system: PKB downstream substrates GSK3 and FKHR; assay: Inhibition of phosphorylation of PKB downstream substrates (Western blot); type: cell-based, human; conditions: cancer cells
Procedure: B3. Inhibition of Phosphorylation of PKB and Downstream Substrates:
Peptide conjugates identified as inhibitors of PKB were further tested in cells for their ability to inhibit the phosphorylation of several PBK downstream substrates. The substrate GSK3 is associated with cell metabolism and cell cycle. Forkhead (FKHR) is directly associated with apoptosis. Inhibitory activity in these assays indicates also that the positive compounds penetrate into the cells.
Cells (2×10^6) were seeded in 25 cm^2 flasks grown for 2 days at normal medium conditions. Inhibitory compounds were added for 24 hrs and analyzed for their effect on PKB phosphorylation at Ser473 residue and on the phosphorylation of specific substrates of PKB, GSK3 and FKHR. At the end of the treatment cells were lysed using lysis buffer (20 mM Tris-HCl pH 7.4, 150 mM NaCl, 0.5% Triton-x100, 25 mM NaF, 2 mM AEBSF, 1 mM sodium orthovanadate, 10 mM β-glycerophosphate, 1 μg/ml aprotonin and 5 μg/ml leupeptin). Equal amounts of cell protein were resolved by 10% SDS-PAGE and electroblotted to PVDF membranes. Western blot analysis was performed using antibodies against phospho-Akt1 (Ser473), phospho-GSK3α (Ser21) and phosphor-FKHR (Thr24), which were obtained from Cell Signaling Technology and against Akt1 (Upstate), GSK3α (Transduction Laboratories), and FKHR (Cell Signaling Technology).

PC3 tumor xenograft [6] = assay: Efficacy study in mice bearing PC3 tumor, systemic administration; type: in vivo
Procedure: b. Human prostatic PC-3 cancer cells are grafted subcutaneously in 5 weeks old male nude Balb/c mice of approximately 20 g. Each mouse will receive 2.5×10^6cells at Day 0. Intraperitoneal (i.p.) treatment is initiated when tumour volume reaches approximately 50 mm^3. I.p. administration is highly acceptable in preliminary experiments, and exemplifies the stability in the blood and liver, and the distribution through the blood into the tumor. The control groups is treated with the vehicle 10% DMSO -90% 2-hydroxypropyl-beta-cyclodextrin at 1×10^−2M in sterile saline. Tumour volume measurements with callipers (equation=length×width^2×0.4) and body weights are recorded 3 times weekly on Mondays, Wednesdays and Fridays. Mice are monitored twice daily for general health status. Mice are sacrificed when the tumour mass in the respective vehicle treated groups reaches approximately 20% of the body weight or if this should not be obtained, 3 weeks after the end of the treatment. At the end of the experiment, the tumours of the 3 first sacrificed mice in each group are collected and embedded in paraffin blocks for further histological examination. The remaining tumours are collected and frozen in liquid nitrogen for western blot analysis.
Although the peptide dose was 3.3 mg/kg the MTD for this compound is 40 times higher, indicating a high therapeutic index. • b. Two concentrations were tested, 66 mg/kg and 33 mg/kg, which are 0.5 and 0.25 of the MTD. The relatively high doses were selected because we had no previous knowledge on the pharmacokinetics of the compound, and we wanted to obtain maximum effect, although we expected that toxic effects might occur as a result of the high dosing.
The compounds were dissolved in a solution of 10% DMSO/90% cyclodextrin in physiological saline. Six groups of 9 mice in each were tested. Two groups received the compound i.v, every 48 hours, and two groups received it daily, by i.p. injection. Treatment started at 7 days post graft, lasted for 21 days, followed by a 14-day observation period. The experiment consisted four experimental groups as in table 7:
It is clear that the effect of the inhibitors was very significant, despite the aggressiveness of the tumors.
Three tumors from each group were studies and a clear trend of increased apoptosis is observed in the treated tumors, implying induction of apoptosis through inhibition of PKB. Tumors were collected after the 14 days observation period in which no treatment was given, indicating long-term effect. The ratio between apoptosis to mitoses in tumor sections express the viability of the tumor. In a viable tissue mitotic process are dominant and apoptosis is minor while in dying tissue this ratio is reversed. […]

[7] = 120 h, read-out: IC50 of chemotherapeutic agent alone
[8] = read-out: IC50 of chemotherapeutic agent +PTR 6320, combined with 1.5 μM of PTR 6320, five days, methylene blue
[9] = i.p. 33 mg/kg, tumors collected after the 14 days observation period

In the case of `CC(=O)O[C@@]12CO[C@@H]1C[C@H](O)[C@@]1(C)C(=O)[C@H](O)C3=C(C)[C@@H](OC(=O)[C@H](O)[C@@H](NC(=O)OC(C)(C)C)c4ccccc4)C[C@@](O)([C@@H](OC(=O)c4ccccc4)[C@H]21)C3(C)C` [Docetaxel], the pIC50 [1, 7] was 9.22 and the pIC50 [1, 8] was 10.52.

`COc1cccc2c1C(=O)c1c(O)c3c(c(O)c1C2=O)C[C@@](O)(C(=O)CO)C[C@@H]3O[C@H]1C[C@H](N)[C@H](O)[C@H](C)O1` [Doxorubicine, Doxorubicin] was tested, and the pIC50 [1, 7] was 7.89 and the pIC50 [1, 8] was 8.96.

With `COc1cc([C@@H]2c3cc4c(cc3[C@@H](O[C@@H]3O[C@@H]5CO[C@@H](C)O[C@H]5[C@H](O)[C@H]3O)[C@H]3COC(=O)[C@H]23)OCO4)cc(OC)c1O` [Etoposide] the pIC50 [1, 7] was 6.52 and the pIC50 [1, 8] was 7.77.

For `O=C1c2c(O)ccc(O)c2C(=O)c2c(NCCNCCO)ccc(NCCNCCO)c21` [Mitoxantrone, Mitoxantrone hydrochloride], the pIC50 [1, 7] was 8.47 and the pIC50 [1, 8] was roughly 9.44.

`CC[C@]1(O)C[C@@H]2CN(CCc3c([nH]c4ccccc34)[C@@](C(=O)OC)(c3cc4c(cc3OC)N(C)[C@H]3[C@@](O)(C(=O)OC)[C@H](OC(C)=O)[C@]5(CC)C=CCN6CC[C@]43[C@@H]65)C2)C1` [Vinblastine] gave a pIC50 [1, 7] of 8.66 and a pIC50 [1, 8] of 10.00.

“Ahx6-DArg-DArg-DArg-DArg-DGln-DArg-DArg-DLys-DLys-DArg-6154 [Peptide AB60025-54]” was tested, and the “% Inhibition PKB activity” value (PKB; 1 μM) was 95% and the “% Inhibition PKB activity” value (PKB; 10 μM) was 97%.

For “Arg-Gln-Ile-Lys-Ile-Trp-Phe-Gln-Asn-Arg-Arg-Met-Lys-Trp-Lys-Lys-6154 [Peptide AB60025-2]”, the “% Inhibition PKB activity” value (PKB; 1 μM) was 60%, the “% Inhibition PKB activity” value (PKB; 10 μM) was 92% and the pIC50 (LNCaP cells) was greater than 4.90. The “% Inhibition PC3 growth” value (PC3 cells) was 60%.

With “Arg-Gln-Ile-Lys-Ile-Trp-Phe-Gln-Asn-Arg-Arg-Met-Lys-Trp-Lys-Lys-6184 [Peptide AB60025-4]” the “% Inhibition PKB activity” value (PKB; 1 μM) was 80%, the “% Inhibition PKB activity” value (PKB; 10 μM) was 96% and the pIC50 (LNCaP cells) was 5.00. The “% Inhibition PC3 growth” value (PC3 cells) was 52%.

With “Cholesteryl-O—CO-(DLys)3-Arg-Pro-Arg-Nva-Tyr-Dap-Hol-NH2 [PTR 6320]” the “improved in vitro selectivity in comparison to PTR 6164” value (PKB; protein kinase B vs. protein kinase A, FIG. 11) was “about 20 times”, the “concentration inducing apoptosis in cancer cells” value ([2]; cancer cells) was 3 µM and the “efficacy / potency in cellular assays relative to PTR 6164” value ([2]; compared with prototype PTR 6164) was “five times better efficacy”.

With “Cholesteryl-O—CO-Arg-Pro-Arg-Nva-Tyr-Dap-Hol-NH2 [PTR 6164]” the cellular activity [3] was 12 µM, the “tumor regression after injection at the tumor area” value (PC3 tumor xenograft [4]) was “four out of five animals showed complete regression of the tumor” and the “phosphorylation of GSK3 and FKHR” value [5] was “decreases the phosphorylation of GSK3 and FKHR”. For the same compound, the “effect on tumor growth” value (PC3 tumor xenograft [6]; daily i.p. injections, 66 mg/kg and 33 mg/kg, 21 days) was “significant inhibition of tumor growth”, the “Apoptosis in tumor sections” value (PC3 tumor xenograft [6]; [9]) was 5.6 and the “Mitoses in tumor sections” value (PC3 tumor xenograft [6]; [9]) was 3.4. For the same compound, the “effect on tumor size” value (PC3 tumor xenograft [6]; injections every 48 hours (i.v.), 66 mg/kg and 33 mg/kg) was “no effect on the tumor size”.

For “Myristyl-Gly-Arg-Pro-Arg-Nva-Tyr-Dap-Hol-NH2 [PTR 6180]”, the cellular activity [3] was 25 to 50 µM.

In the case of “Vitamin E succinate-Arg-Pro-Arg-Nva-Tyr-Dap-Hol-NH2 [PTR 6244]”, the cellular activity [3] was 15 to 20 µM.
